One data set has as its system LDL. The data set can be described thus: LDL antioxidation test (CuCl2-initiated LDL oxidation, lag time). The class given is biochemical, human. The settings on record: Table 2, 10 μM; for Lag Time: control 20 min.
A short description of data set [1]: Distribution of isoflavones in lipoprotein subfractions of whole plasma. Type of data set: in vitro ADME. The method, then: Cpd. 1 ([…]), was incubated with whole plasma for 0 h, 4 h and 8 h. The different subfractions LDL/VLDL, HDL and protein (lipoprotein free) were then analysed for their Cpd. 1 concentration. Cpd. 1 was used because it had the most similar polarity to the isoflavone synthetic derivatives.

The conditions of data set [2]: 45 mg over 5 to 10 weeks; cited from earlier work.
Another data set concerns rat thoracic aorta. The experiment in a line: Contractile curves to noradrenaline in rat isolated aortic rings (Protocol 1). Particulars: test compound 1 μg/ml. The method, then:
(§1) Male Sprague-Dawley rats (250±50 g) were gassed with 80% CO2 and 20% O2 until killed. The thoracic aorta was excised and quickly placed in ice-cold Krebs modified solution composed of NaCl […], […] 4.7 mM, MgSO4 7H2O 1.17 mM, NaHCO3 25 mM, KH2PO4 1.18 mM, CaCl2 2.5 mM, glucose 11 mM and EDTA 0.03 mM. It was then trimmed of fat and connective tissue and cut into 2-3 mm wide rings. Each ring was mounted on two parallel stainless steel hooks in a single water-jacketed 3 ml organ bath containing modified Krebs solution maintained at 37° C. and bubbled with 95% O2 plus 5% CO2. The lower hook was attached to a movable support leg and the upper hook to an FTO3 force transducer (Grass Scientific Instruments, Mitutoyo, Japan) for isometric recordings. Changes in force were amplified (Quadbridge amplifier, Scientific Concepts Inc., Victoria, Australia) and recorded on a MacLab 8E data acquisition system (Adinstruments Pty Ltd., NSW, Australia) linked to an Apple computer (Apple Computer Inc, Cupertina, Calif.). Rings were set at an initial tension of 2 g and allowed to equilibrate for 30 minutes after which time they were re-set to 2 g tension before the commencement of each experimental protocol.
Full concentration-contractile curves were obtained to noradrenaline (0.1 nM-[…]) in the absence and presence of β-estradiol (1 μg/ml); Cpd. 5 (0.1 and 1 μg/ml); Cpd. 7 (0.1 and 1 μg/ml); Cpd. 8 (0.1 and 1 μg/ml) and Cpd. 12 (1 μg/ml) and the vehicle equi-volume DMSO. Only one compound at any one concentration was tested on any one ring from any one animal.
(§2) Contractile responses are expressed in g tension (mean+standard error of the mean). Dilatory responses are expressed as a percentage of the contractile force generated by the pre-constricting agent used. Individual concentration-response curves for noradrenaline and acetylcholine±the interventions used were fitted to a logistic equation of the form […] where E is the response, M is the maximum response and K is the concentration eliciting 50% of the maximum response (ie neg log EC50).

Data set [3] concerns rat isolated aortic rings. The experiment in a line: Vasodilatory capacity in noradrenaline pre-constricted aortic rings and mechanism of action (Protocol 2a/2b). The method, then:
as §1
A full concentration response to noradrenaline was obtained. From this the concentration producing a submaximal contraction of approximately 80% was selected (0.03-0.3 μM). The ring was then constricted with this submaximal concentration and allowed to plateau before full concentration-relaxation curves were obtained to β-estradiol and Cpds. 5, 7, 8 and 12 and the vehicle DMSO (at equi-volume). Only one compound was studied with any one ring from any one animal.
Full relaxation curves were obtained to Cpds. 5, 7, 8 and 12 and β-estradiol in the absence and presence of the endothelium (rings were denuded of endothelium by gentle rotation of the lumen against a rough surface), the nitric oxide synthase inhibitor nitro-L-arginine (NOLA 10 μM; with the exception of Cpd. 8, due to limited supply of the compound), KCl 40 mM (to inhibit endothelium derived hyperpolarising factor), the cyclo-oxygenase inhibitor indomethacin (10 μM) and the soluble guanylate cyclase inhibitor 1H-[1,2,4]oxadiazolo[4,3-a]quinoxalin-1-one (ODQ; 10 μM). Only one compound with only one intervention was tested on any one ring from any one animal.
as §2

Data set [4] concerns rat isolated aortic rings. The experiment in a line: Protection against endothelium damage induced by oxidised LDL, acetylcholine dilatation (Protocol 3). Particulars: ox-LDL 0.3 mg protein/ml; β-estradiol 10 pg/ml, Cpd. 5 300 ng/ml, Cpd. 7 1 μg/ml, Cpd. 8 and 12 3 μg/ml. The method, then: as §1
Full concentration response curves to phenylephrine were constructed from which the concentration giving a submaximal contraction of approximately 80% was selected (usually 0.3 μM). Tissues were then constricted with phenylephrine at the selected concentration and allowed to plateau. Full concentration dilatory curves were then constructed to acetylcholine. […]
Human plasma was obtained from the blood bank. […] The protein content of the final LDL fraction obtained was determined by the simplified protein assay method of Lowry. […]
Contractile responses are expressed in g tension (mean+standard error of the mean). Dilatory responses are expressed as a percentage of the contractile force generated by the pre-constricting agent used. […]

Data set [5] has as its system IMA-derived human VSMC primed with PDGF BB. The experiment in a line: PDGF BB-induced VSMC DNA synthesis, proliferation and cell number. Type of data set: cell-based. The settings on record: Homo sapiens, VSMC, 3 h, read-out: inhibition of PDGF BB-induced DNA synthesis ([3H]-thymidine incorporation). The method, then:
Cell proliferation was induced by a variety of growth factors such as serum and platelet derived growth factor (PDGF).
Media was changed to LG serum-free DMEM and cells were treated with [^3H]-thymidine at 1 μCi/well for 3 hours. Cells were washed twice with ice cold Dulbecco's PBS. Next, ice cold 0.2M HClO4 (1 ml/well) was added and cells were incubated on ice for 30 min. Cells were then washed three times with 0.5 ml/well of ice cold 0.2M HClO4. Media (0.5 ml/well of 0.2 M NaOH) was replaced and cells were incubate at 37° C. After 1 hour, cells were treated with acetic acid (6%, 0.2 ml/well), transferred to scintillation vials with 3 ml scintillation liquid (Instagel) and counted for 2 min per vial.
The effect of Cpd. 5 and Cpd. 7 was tested further in IMA-derived human VSMC primed with PDGF BB instead of serum. […] (FIG. 12). This effect was equivalent to that observed with estradiol. Cpd.
In further experiments Cpd. […] 7 at 100 nmol/L), indicating ER-mediation. […] 7 (1-100 nmol/L).

The values that follow come from patent publication US20050119301A1, “Treatment of restenosis” (priority 2001, published 2005).

As for `COc1ccc(-c2coc3cc(O)cc(O)c3c2=O)cc1` [Biochanin], in the data set on LDL, the “% Increase in Time” value was determined as 0% and the “Lag Time” value is 20 min.

Regarding `O=c1c(-c2ccc(O)cc2)coc2cc(O)ccc12` [Cpd. 1, daidzein], the “amount associated with the lipoproteins, dependence on time and concentration” value in data set [1] is “increased with time, but not with concentration”. In the data set on LDL, the “% Increase in Time” value is given as 0% and the “Lag Time” value came to 19 min.

As to `O=c1c(-c2ccc(O)cc2)coc2cc(O)cc(O)c12` [Cpd. 3, genistein], in the data set with LDL, the “% Increase in Time” value was found to be 0% and the “Lag Time” value is on record as 20 min. In data set [2], the “effect on blood lipid concentrations” value is “no significant effect on blood lipid concentrations”.

For the compound `COc1cc2c(=O)c(-c3ccc(O)cc3)coc2cc1O` [Glycitein], in the data set with LDL, the “% Increase in Time” value was determined as 0% and the “Lag Time” value is listed as 20 min.

For the compound `C[C@]12CC[C@@H]3c4ccc(O)cc4CC[C@H]3[C@@H]1CC[C@@H]2O` [β-estradiol, 1,3,5[10]-estratriene-3,17β-diol, reference compound], the “y max, Noradrenaline + Test compound (B)” value in the data set on rat thoracic aorta (mean ± SEM) is reported as 0.22 ± 0.12 g tension. Further, the “y max Difference (A − B)” value in the data set with rat thoracic aorta (noradrenaline alone minus noradrenaline + compound) is recorded as 2.1 ± 0.31 g tension. Besides, the “vasodilatory response: effect of high KCl levels” value in data set [3] (KCl 40 mM) was “inhibited”. Further, in data set [3] (NOLA 10 μM), the “vasodilatory response: effect of nitro-L-arginine (NOLA)” value is “inhibited”. For the same compound, in data set [3] (ODQ 10 μM), the “vasodilatory response: effect of ODQ” value was “inhibited”. Moreover, the “vasodilatory response: effect of removal of the endothelium” value in data set [3] (denuded vs intact endothelium) is on record as “inhibited”. In data set [3] (indomethacin 10 μM), the “vasodilatory response: effect of indomethacin” value is “did not influence”. Also, the “protective effect against ox-LDL inhibition of acetylcholine dilatation (in words)” value in data set [4] was “diminished the effect of ox-LDL”. In data set [5], the inhibition at 0.001 µM was determined as 27%, the inhibition at 0.01 µM was determined as 27% and the inhibition at 0.1 µM worked out at 33%.
